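Each compound was tested at five concentrations against cells in 96-well plates for 48 hours. TGI denotes the concentration required for complete inhibition of growth.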
Columns and labels:
Assay in all cases: inhibition of tumour cell growth, NCI panel, 48 h
[1] = system: OVCAR-5 ovarian
[2] = system: SK-OV-3 ovarian
[3] = system: NCI-H460 lung
[4] = system: MDA-N
[5] = system: TK-10 renal
[6] = system: SN12C renal
[7] = system: A549 NSCLC
[8] = system: DU-145 prostate
[9] = system: ACHN renal
[10] = system: HOP-62 NSCLC
[11] = system: EKVX NSCLC
[12] = system: PC-3 prostate
[13] = system: LOX IMVI melanoma
[14] = system: OVCAR-3 ovarian
[15] = system: CCRF-CEM leukemia
[16] = system: SW-620 colon
[17] = system: HT29 colon
[18] = system: MDA-MB-435
[19] = system: SF-295 CNS
[20] = system: SK-MEL-28 melanoma
[21] = system: KM12 colon
[22] = system: SF-539 CNS
[23] = system: MOLT-4 leukemia
[24] = system: NCI-H226 lung
[25] = system: T-47D breast
[26] = system: SF-268 CNS
[27] = system: HS 578T breast
[28] = system: M14 melanoma
[29] = system: BT-549 breast
[30] = system: HCT-15 colon
[31] = system: SNB-19 CNS
[32] = system: A498 renal
[33] = system: RXF 393 renal
[34] = system: MALME-3M melanoma
[35] = system: SK-MEL-5 melanoma
[36] = system: HOP-92 NSCLC
[37] = system: SNB-75 CNS
[38] = system: MCF7 breast
[39] = system: 786-0 renal
[40] = system: UO-31 renal
[41] = system: K-562 leukemia
[42] = system: IGROV1 ovarian
[43] = system: HCT-116 colon
[44] = system: U251 CNS
[45] = system: NCI-H23 lung
[46] = system: UACC-62 melanoma
[47] = system: OVCAR-8 ovarian
[48] = system: UACC-257 melanoma
[49] = system: HL-60(TB) leukemia
[50] = system: SR leukemia
[51] = system: NCI-H522 lung
[52] = system: OVCAR-4 ovarian
[53] = system: CAKI-1 renal
[54] = system: MDA-MB-231 breast
[55] = system: SK-MEL-2 melanoma
[56] = system: COLO 205 colon
[57] = system: HCC-2998 colon
[58] = system: RPMI-8226 leukemia
[59] = system: NCI/ADR-RES ovarian

Question: How did the TGI [1] turn out when `CCCCCCOc1ccc(NC2=C(Cl)C(=O)c3ncccc3C2=O)cc1` was run?
Answer: > 10 µM

Question: What about the TGI [2] of the same molecule?
Answer: > 10 µM

Question: What about the TGI [3] of the same molecule?
Answer: 3.18 µM

Question: What about the TGI [4] of the same molecule?
Answer: 2.97 µM

Question: And the TGI [5]?
Answer: > 10 µM

Question: What about the TGI [6] of the same molecule?
Answer: 3.12 µM

Question: And the TGI [7]?
Answer: 8.96 µM

Question: What about the TGI [8] of the same molecule?
Answer: 2.83 µM

Question: And the TGI [9]?
Answer: > 10 µM

Question: And the TGI [10]?
Answer: 3.88 µM

Question: What about the TGI [11] of the same molecule?
Answer: > 10 µM

Question: And the TGI [12]?
Answer: 3.97 µM

Question: What about the TGI [13] of the same molecule?
Answer: 4.15 µM

Question: And the TGI [14]?
Answer: 6.25 µM

Question: And the TGI [15]?
Answer: 5.96 µM

Question: And the TGI [16]?
Answer: 5.38 µM

Question: And the TGI [17]?
Answer: > 10 µM

Question: What about the TGI [18] of the same molecule?
Answer: 3.27 µM

Question: And the TGI [19]?
Answer: 3.59 µM

Question: And the TGI [20]?
Answer: 3.04 µM

Question: What about the TGI [21] of the same molecule?
Answer: 3.14 µM

Question: And the TGI [22]?
Answer: 3.3 µM

Question: And the TGI [23]?
Answer: > 10 µM

Question: And the TGI [24]?
Answer: > 10 µM

Question: What about the TGI [25] of the same molecule?
Answer: 4.03 µM

Question: And the TGI [26]?
Answer: 4.07 µM

Question: And the TGI [27]?
Answer: 9 µM

Question: What about the TGI [28] of the same molecule?
Answer: 4.04 µM

Question: What about the TGI [29] of the same molecule?
Answer: 3.56 µM

Question: And the TGI [30]?
Answer: 4.64 µM

Question: And the TGI [31]?
Answer: 4.51 µM

Question: And the TGI [32]?
Answer: > 10 µM

Question: What about the TGI [33] of the same molecule?
Answer: 3.7 µM

Question: What about the TGI [34] of the same molecule?
Answer: 3.77 µM

Question: What about the TGI [35] of the same molecule?
Answer: 2.92 µM

Question: What about the TGI [36] of the same molecule?
Answer: > 10 µM

Question: And the TGI [37]?
Answer: 3.93 µM

Question: And the TGI [38]?
Answer: 2.63 µM

Question: And the TGI [39]?
Answer: 5.75 µM

Question: What about the TGI [40] of the same molecule?
Answer: 2.72 µM

Question: And the TGI [41]?
Answer: > 10 µM

Question: What about the TGI [42] of the same molecule?
Answer: 7.85 µM

Question: And the TGI [43]?
Answer: 2.38 µM

Question: And the TGI [44]?
Answer: 3.08 µM

Question: What about the TGI [45] of the same molecule?
Answer: 4.34 µM

Question: What about the TGI [46] of the same molecule?
Answer: 2.75 µM

Question: And the TGI [47]?
Answer: > 10 µM

Question: What about the TGI [48] of the same molecule?
Answer: 4.54 µM

Question: How did the TGI [1] turn out when `Cc1c(F)c(N)c2c(=O)cc(-c3ccc(NC(=O)C(N)CCCN=C(N)N)c(F)c3)oc2c1F` (centres undefined) was run?
Answer: > 50 µM

Question: What about the TGI [2] of the same molecule?
Answer: > 68.2 µM

Question: And the TGI [3]?
Answer: > 64.9 µM

Question: And the TGI [4]?
Answer: > 100 µM

Question: And the TGI [49]?
Answer: > 100 µM

Question: What about the TGI [5] of the same molecule?
Answer: 30.5 µM

Question: And the TGI [50]?
Answer: > 100 µM

Question: What about the TGI [6] of the same molecule?
Answer: 45.2 µM

Question: And the TGI [7]?
Answer: > 100 µM

Question: And the TGI [8]?
Answer: > 78.9 µM

Question: What about the TGI [9] of the same molecule?
Answer: 48.5 µM

Question: And the TGI [10]?
Answer: 99.6 µM

Question: What about the TGI [11] of the same molecule?
Answer: > 100 µM

Question: And the TGI [12]?
Answer: > 76.6 µM

Question: And the TGI [51]?
Answer: 97.7 µM

Question: What about the TGI [13] of the same molecule?
Answer: > 100 µM

Question: What about the TGI [15] of the same molecule?
Answer: > 100 µM

Question: What about the TGI [16] of the same molecule?
Answer: > 100 µM

Question: What about the TGI [17] of the same molecule?
Answer: > 100 µM

Question: What about the TGI [18] of the same molecule?
Answer: > 83.6 µM

Question: What about the TGI [19] of the same molecule?
Answer: > 56 µM

Question: And the TGI [20]?
Answer: 63.6 µM

Question: What about the TGI [52] of the same molecule?
Answer: 40.7 µM

Question: And the TGI [21]?
Answer: 99.7 µM

Question: And the TGI [22]?
Answer: 40.7 µM

Question: What about the TGI [23] of the same molecule?
Answer: > 100 µM

Question: And the TGI [24]?
Answer: 0.758 µM

Question: And the TGI [25]?
Answer: > 100 µM

Question: What about the TGI [26] of the same molecule?
Answer: > 100 µM

Question: And the TGI [27]?
Answer: 71.9 µM

Question: What about the TGI [53] of the same molecule?
Answer: 3.32 µM

Question: What about the TGI [54] of the same molecule?
Answer: > 59.6 µM

Question: What about the TGI [55] of the same molecule?
Answer: 60 µM

Question: What about the TGI [28] of the same molecule?
Answer: 97.1 µM

Question: What about the TGI [29] of the same molecule?
Answer: 51.5 µM

Question: And the TGI [56]?
Answer: > 100 µM

Question: What about the TGI [57] of the same molecule?
Answer: > 100 µM

Question: What about the TGI [30] of the same molecule?
Answer: > 100 µM

Question: And the TGI [31]?
Answer: > 100 µM

Question: And the TGI [32]?
Answer: 0.281 µM

Question: What about the TGI [33] of the same molecule?
Answer: 59.3 µM

Question: What about the TGI [34] of the same molecule?
Answer: 62.5 µM

Question: What about the TGI [35] of the same molecule?
Answer: 76.8 µM

Question: What about the TGI [36] of the same molecule?
Answer: > 100 µM

Question: What about the TGI [39] of the same molecule?
Answer: > 100 µM

Question: What about the TGI [40] of the same molecule?
Answer: > 55.8 µM

Question: And the TGI [41]?
Answer: > 100 µM

Question: What about the TGI [42] of the same molecule?
Answer: 10.8 µM

Question: And the TGI [43]?
Answer: > 100 µM

Question: And the TGI [44]?
Answer: > 55.3 µM

Question: What about the TGI [58] of the same molecule?
Answer: > 100 µM

Question: And the TGI [45]?
Answer: > 73.8 µM

Question: What about the TGI [47] of the same molecule?
Answer: > 82.8 µM

Question: And the TGI [48]?
Answer: 7.41 µM

Question: What about the TGI [59] of the same molecule?
Answer: > 100 µM

Question: Which results are given for `O=C(O)c1ccc(Nc2nc3ccccc3nc2C(=O)O)cc1`?
Answer: TGI [1]: > 100 µM; TGI [2]: > 100 µM; TGI [3]: > 100 µM; TGI [4]: > 100 µM; TGI [5]: > 100 µM; TGI [50]: > 100 µM; TGI [6]: > 100 µM; TGI [7]: > 100 µM; TGI [8]: > 100 µM; TGI [9]: > 100 µM; TGI [10]: > 100 µM; TGI [11]: > 100 µM; TGI [51]: > 100 µM; TGI [14]: > 100 µM; TGI [15]: > 100 µM; TGI [17]: > 100 µM; TGI [18]: > 100 µM; TGI [19]: > 100 µM; TGI [20]: > 100 µM; TGI [52]: > 100 µM; TGI [21]: > 100 µM; TGI [22]: > 100 µM; TGI [23]: > 100 µM; TGI [25]: > 100 µM; TGI [26]: > 100 µM; TGI [27]: > 100 µM; TGI [53]: > 100 µM; TGI [54]: > 100 µM; TGI [55]: > 100 µM; TGI [28]: > 100 µM; TGI [29]: > 100 µM; TGI [56]: > 100 µM; TGI [57]: > 100 µM; TGI [31]: > 100 µM; TGI [34]: > 100 µM; TGI [35]: > 100 µM; TGI [36]: > 100 µM; TGI [37]: > 100 µM; TGI [38]: > 100 µM; TGI [39]: > 100 µM; TGI [40]: > 100 µM; TGI [41]: > 100 µM; TGI [42]: > 100 µM; TGI [43]: > 100 µM; TGI [44]: > 100 µM; TGI [58]: > 100 µM; TGI [45]: > 100 µM; TGI [46]: > 100 µM; TGI [47]: > 100 µM; TGI [48]: > 100 µM; TGI [59]: > 100 µM

— PubChem BioAssay (NCI)
